Measurements published in patent US20020133846A1, “Method for protecting plants” (priority 1996, published 2002).
Where two headings read alike, the source gives them in different places.

Legend:
Erysiphe graminis [1] = experiment: Action against Erysiphe graminis in wheat, field trials
Method: In field trials (10 m^2), winter wheat in the growth phase was sprayed with a spray mixture prepared with a wettable powder of the active ingredient. Infection was naturally. 10 days post-infection, the fungus infestation was assessed.

Alternaria solani = experiment: Action against Alternaria solani in tomatoes in the open
Method: Tomato plants on a 7 m^2 plot were sprayed at 7-day intervals with a spray mixture prepared wettable powder of the active ingredient; in total 9 times. Infection was naturally. For ion, the leaf infested with the fungus was measured.

Peronospora tabacina = experiment: Action against Peronospora tabacina on tobacco plants
Method: Tobacco plants (6 weeks old) were sprayed with a formulated solution of the test compound. Four days after treatment, the plants were inoculated with a sporangia suspension of the fungus, kept at high humidity for 4 to 5 days and then incubated further under a normal day/night sequence. Evaluation of the symptoms in the tests was based on the leaf surface infested with fungus. The infestation of the untreated plants corresponded to 0 % action.

Pyricularia oryzae = assay type: in vivo
[2] = system: Colletotrichum lagenarium; experiment: Action against Colletotrichum lagenarium on Cucumis sativus L., foliar application; assay type: in vivo
[3] = system: Colletotrichum lagenarium; experiment: Action against Colletotrichum lagenarium on Cucumis sativus L., soil application; assay type: in vivo
Cercospora nicotianae = experiment: Action against Cercospora nicotianae on tobacco plants; assay type: in vivo
Phytophthora infestans = assay type: in vivo
[4] = system: Pseudoperonospora cubensis; experiment: Action against Pseudoperonospora cubensis in cucumbers; assay type: in vivo
Puccinia recondita = experiment: Action against Puccinia recondita in wheat
Method: 7-day-old wheat plants were sprayed to drip point with a spray mixture prepared from a formulated active ingredient, or combination of active ingredients. After 4 days, the treated plants were infected with a conidia suspension of the fungus, and the treated plants were subsequently incubated for 2 days at a relative atmospheric humidity of 90-100% and 20 C. 10 days post-infection, the fungus infestation was assessed.

Erysiphe graminis [5] = experiment: Action against Erysiphe graminis on barley (residual-protective / systemic)
Method: Residual-protective action: Barley plants about 8 cm in height were sprayed to drip point with an aqueous spray mixture (max. 0.02 % active ingredient) and were dusted 3 to 4 days later with conidia of the fungus. The infected plants were stood in a greenhouse at 22°. Fungus infestation was generally evaluated 10 days after infection.
Systemic action: Barley plants about 8 cm in height were watered with an aqueous spray mixture (max. 0.002 % active ingredient, based on the volume of the soil). […] The plants were dusted with conidia of the fungus 3 to 4 days later. The infected plants were stood in a greenhouse at 22°. Fungus infestation was generally evaluated 10 days after infection.

Colletotrichum sp. = experiment: Action against Colletotrichum sp. (anthracnose) on chili, field; assay type: in vivo; conditions: Table 16, chili fruits after fifth spraying, comp. II alone 100 ppm
Excerpt: Effects on crop yield: In a plot of land about 10 m^2 (test location: Cikampek, Java, Indonesia), chili plants were sprayed a total of 7 times at intervals of about 7 days with 500-700 liters of spray mixture per hectare. Three days after the first spraying, the plants were infected artificially with the fungus.

Cercospora sp. = experiment: Action against Cercospora sp. (leaf spot) on chili, field; assay type: in vivo; conditions: Table 17, leaves after sixth spraying, comp. II alone 100 ppm
[6] = Action on crop yield of chili, field; assay type: in vivo; conditions: in vivo
[7] = system: Peronospora parasitica NoCo2; experiment: Action against Peronospora parasitica NoCo2 in Arabidopsis thaliana (Col-0), rRNA fungal probe; assay type: in vivo; conditions: Table 29, Col-0, metalaxyl alone 0.1 mg/l
[8] = system: Peronospora parasitica Emwa; experiment: Action against Peronospora parasitica Emwa in Arabidopsis thaliana (Ws), rRNA fungal probe; assay type: in vivo; conditions: Hyaloperonospora parasitica, in Arabidopsis thaliana, Table 30, Ws, read-out: Fungal Growth Inhibition % O (observed)
[9] = system: Peronospora parasitica NoCo2; experiment: whole plant or invertebrate; assay type: in vivo; conditions: Hyaloperonospora parasitica, in Arabidopsis thaliana, read-out: Fungal Growth Inhibition % O (observed), Table 33, wt Col-0, metalaxyl 12.5 mg/l
[10] = system: Peronospora parasitica isolate Emwa; experiment: Action against Peronospora parasitica in Arabidopsis overexpressing NIM1 (lines 6E, 7C) and wild-type Ws; assay type: in vivo; conditions: Hyaloperonospora parasitica, in Arabidopsis thaliana, Table 36, wt Ws, read-out: Fungal Growth Inhibition % O (observed)
Excerpt: The plant lines used in this example (6E and 7C) were generated from transformation of wild-type Arabidopsis thaliana plants (ecotype Ws) with the BamHI-HindIII NIM1 genomic fragment (SEQ ID NO:1—bases 1249-5655), as described above in Example 21. The fungicides metalaxyl, fosetyl, and copper hydroxide, formulated as 25%, 80%, and 70% active ingredient (ai), respectively, with a wettable powder carrier, were applied as fine mist to leaves of three week-old transgenic Ws plants constitutively expressing the NIM1 gene. The wettable powder alone was applied as a control. Three days later, plants were inoculated with a Peronospora parasitica isolate Emwa conidial suspension (1-2×10^5 spores/ml), as described in Delaney et al. (1995). Following inoculation, plants were covered to maintain high humidity and were placed in a Percival growth chamber at 17° C. with a 14-hr day/10-hr night cycle (Uknes et al., 1993). Tissue was harvested 8 days after inoculation.
Fungal infection progression was followed for 12 days by viewing under a dissecting microscope to score development of conidiophores (Delaney, et al. (1994); Dietrich, et al. (1994)). Lactophenoltrypan blue staining of individual leaves was carried out to observe fungal growth within leaf tissue. Fungal growth was quantified using a rRNA fungal probe obtained by PCR according to White et al. (1990; PCR Protocols: A guide to Methods and Application, 315-322) using primers NS1 and NS2 and P. parasitica EmWa DNA as templates. RNA was purified from frozen tissue by phenol/chloroform extraction following lithium chloride precipitation (Lagrimini et al, 1987: PNAS, 84: 7542-7546). Samples (7.5 μg) were separated by electrophoresis through formaldehyde agarose gels and blotted to nylon membranes (Hybond-N+, Amersham) as described by Ausbel et al. (1987). Hybridizations and washing were according to Church and Gilbert (1984, PNAS, 81: 1991-1995). Relative amounts of the transcript were determined using a Phosphor Imager (Molecular Dynamics, Sunnyvale, Calif.) following manufacturers instructions. Sample loading was normalized by probing stripped filter blots with the constitutively expressed b-tubulin Arabidopsis cDNA.

Mycosphaerella fijiensis = experiment: Action against Mycosphaerella fijiensis in bananas; conditions: Table 23, comp. II alone 50 g a.i. per ha
Method: 40 banana plants in a 300 m^2 plot were sprayed at 17-19 day intervals with a spray mixture prepared with the wettable powder of the active ingredient; in total 6 times. Infection was naturally. For evaluation, the leaf infested with the fungus was measured.

## Cc1cc(C2CC2)nc(Nc2ccccc2)n1 [cyprodinil, 4-cyclopropyl-6-methyl-N-phenyl-2-pyrimidinamine]
Erysiphe graminis [1]; Table 22, comp. II alone 50 g a.i. per ha
  % action O (observed): 2%
Erysiphe graminis [1]; Table 22, comp. II alone 100 g a.i. per ha
  % action O (observed): 31%
Alternaria solani; Table 24, comp. II alone 12.5 g a.i. per ha
  % action O (observed): 30%
Alternaria solani; Table 24, comp. II alone 25 g a.i. per ha
  % action O (observed): 51%

## COc1ccc(C(=CC(=O)N2CCOCC2)c2ccc(Cl)cc2)cc1OC [dimethomorph, 4-[3-(4-chlorophenyl)-3-(3,4-dimethoxyphenyl)acryloyl]morpholine]
Peronospora tabacina; Table 28, comp. II alone 0.3 ppm
  % action O (observed): 52%
Peronospora tabacina; Table 28, comp. II alone 1 ppm
  % action O (observed): 52%

## O=C1CCc2cccc3c2N1CC3 [Compound IIJ, 1,2,5,6-tetrahydro-4H-pyrrolo[3,2,1-ij]quinolin-4-one]
Pyricularia oryzae; Table 14, comp. II alone 0.75 kg a.i. per ha
  % action O (observed): 46%
Pyricularia oryzae; Table 14, comp. II alone 1.5 kg a.i. per ha
  % action O (observed): 82%

## O=C(O)c1cccc2nnsc12 [benzothiadiazole-7-carboxylic acid]
[2]; Table 4, comp. I alone 0.2 ppm
  % action O (observed): 5%
[2]; Table 4, comp. I alone 2 ppm
  % action O (observed): 22%
[2]; Table 6, comp. I alone 0.2 ppm
  % action O (observed): 3%
[2]; Table 6, comp. I alone 0.6 ppm
  % action O (observed): 51%
[2]; Table 7, comp. I alone 0.06 ppm
  % action O (observed): 16%
[2]; Table 7, comp. I alone 0.2 ppm
  % action O (observed): 22%
[2]; Table 7, comp. I alone 6 ppm
  % action O (observed): 60%
[3]; Table 5, comp. I alone 0.006 ppm
  % action O (observed): 0%
[3]; Table 5, comp. I alone 0.02 ppm
  % action O (observed): 40%
[3]; Table 5, comp. I alone 0.06 ppm
  % action O (observed): 49%
[3]; Table 5, comp. I alone 0.2 ppm
  % action O (observed): 91%
Cercospora nicotianae; Table 11, comp. I alone 0.2 kg a.i. per ha
  % action O (observed): 0%
Cercospora nicotianae; Table 11, comp. I alone 0.6 kg a.i. per ha
  % action O (observed): 3%
Cercospora nicotianae; Table 11, comp. I alone 2 kg a.i. per ha
  % action O (observed): 69%
Cercospora nicotianae; Table 11, comp. I alone 6 kg a.i. per ha
  % action O (observed): 79%
Cercospora nicotianae; Table 12, comp. I alone 2 kg a.i. per ha
  % action O (observed): 69%
Cercospora nicotianae; Table 12, comp. I alone 6 kg a.i. per ha
  % action O (observed): 79%
Cercospora nicotianae; Table 12, comp. I alone 20 kg a.i. per ha
  % action O (observed): 100%
Phytophthora infestans; Table 26, comp. I alone 0.1 mg a.i. per liter
  % action O (observed): 0%
Phytophthora infestans; Table 26, comp. I alone 0.5 mg a.i. per liter
  % action O (observed): 9%
Phytophthora infestans; Table 26, comp. I alone 1 mg a.i. per liter
  % action O (observed): 22%
Phytophthora infestans; Table 26, comp. I alone 5 mg a.i. per liter
  % action O (observed): 45%
[4]; Table 27, comp. I alone 0.05 mg a.i. per liter
  % action O (observed): 0%
[4]; Table 27, comp. I alone 0.5 mg a.i. per liter
  % action O (observed): 6%
[4]; Table 27, comp. I alone 5 mg a.i. per liter
  % action O (observed): 66%
Puccinia recondita; Table 20, comp. I alone 6 kg a.i. per ha
  % action O (observed): 20%
Puccinia recondita; Table 20, comp. I alone 20 kg a.i. per ha
  % action O (observed): 40%
Erysiphe graminis [5]; Table 1, comp. I alone 0.6 ppm
  % action O (observed): 0%
Erysiphe graminis [5]; Table 1, comp. I alone 2 ppm
  % action O (observed): 40%
Erysiphe graminis [5]; Table 1, comp. I alone 6 ppm
  % action O (observed): 89%
Erysiphe graminis [5]; Table 2, comp. I alone 0.6 ppm
  % action O (observed): 14%
Erysiphe graminis [5]; Table 2, comp. I alone 2 ppm
  % action O (observed): 27%

## manganese ethylenebis(dithiocarbamate)polymer-zinc complex [mancozeb]
Colletotrichum sp.
  % action O (observed): 12%
Cercospora sp.
  % action O (observed): 8%
[6]
  Crop yield in kg per hectare O (observed): 8 kg per hectare

## COCC(=O)N(c1c(C)cccc1C)C(C)C(=O)OC (racemic) [metalaxyl]
Phytophthora infestans; Table 25, comp. II alone 0.1 mg a.i. per liter
  % action O (observed): 13%
Phytophthora infestans; Table 25, comp. II alone 1 mg a.i. per liter
  % action O (observed): 23%
Phytophthora infestans; Table 25, comp. II alone 10 mg a.i. per liter
  % action O (observed): 35%
Phytophthora infestans; Table 25, comp. II alone 50 mg a.i. per liter
  % action O (observed): 68%
Phytophthora infestans; Table 26, comp. II alone 1 mg a.i. per liter
  % action O (observed): 13%
Phytophthora infestans; Table 26, comp. II alone 10 mg a.i. per liter
  % action O (observed): 33%
Phytophthora infestans; Table 26, comp. II alone 50 mg a.i. per liter
  % action O (observed): 63%
Phytophthora infestans; Table 26, comp. II alone 100 mg a.i. per liter
  % action O (observed): 83%
[4]; Table 27, comp. II alone 0.5 mg a.i. per liter
  % action O (observed): 31%
[4]; Table 27, comp. II alone 5 mg a.i. per liter
  % action O (observed): 66%
[4]; Table 27, comp. II alone 50 mg a.i. per liter
  % action O (observed): 91%
[7]; Hyaloperonospora parasitica, in Arabidopsis thaliana, read-out: Fungal Growth Inhibition % O (observed)
  inhibition at 0.1 µg/mL: 0%
[7]
  Fungal Growth Inhibition % O (observed): no fungal growth inhibition
[8]; metalaxyl alone 0.1 mg/l
  inhibition at 0.1 µg/mL: 50%
[8]; metalaxyl alone 0.5 mg/l
  inhibition at 0.5 µg/mL: 50%
[8]; metalaxyl alone 2.5 mg/l
  inhibition at 2.5 µg/mL: 75%
[9]
  inhibition at 12.5 µg/mL: 52.7%
[10]; metalaxyl 0.0012 g/l
  inhibition at 1.2 µg/mL: 27%
[10]; metalaxyl 0.0125 g/l
  inhibition at 12.5 µg/mL: 59%

## CCCC1COC(Cn2cncn2)(c2ccc(Cl)cc2Cl)O1 (stereo not drawn) [propiconazole, 1-[2-(2,4-dichlorophenyl)-4-propyl-1,3-dioxolan-2-ylmethyl]-1H-1,2,4-triazole]
Puccinia recondita; Table 19, comp. II alone 5 mg a.i. per liter
  % action O (observed): 10%
Mycosphaerella fijiensis
  % action O (observed): 26%
Erysiphe graminis [1]; Table 21, comp. II alone 50 g a.i. per ha
  % action O (observed): 2%
Erysiphe graminis [1]; Table 21, comp. II alone 100 g a.i. per ha
  % action O (observed): 31%
